Values quoted from earlier work, collected in US20160378910A1, “MOLECULAR ACTIVE CENTER IDENTIFICATION USING TUNNELING BARRIERS AND/OR ASSOCIATED MEASUREMENTS FOR SUB-MOLECULAR QSAR” (Florida Institute of Technology, Inc., priority 2015, published 2016).

Tested on: W-2 strain of P. falciparum
Details: W-2 strain of malaria (P. falciparum); rank among the twelve tryptanthrin analogs in the α3* lobe QSAR plot (FIG. 13)

IC50: highest
Structure (SMILES): O=C1c2cc(I)ccc2-n2c1nc1c(O)nc(O)nc1c2=O [1,3-diaza-2,4-hydroxy-8-iodotryptanthrin]
